BindingDB's records for doi:10.1021/jm950409c (University of Bari Aldo Moro, 1996)

Columns and labels:
[1] = Inhibitory activity against 5-hydroxytryptamine 1A receptor isolated from rat hippocampus membranes membrane using [3H]5-HT as radioligand in the presence of 10e-6 M ketanserin as 5-HT2 blocker
[2] = biological target: Sigma non-opioid intracellular receptor 1 (Cavia porcellus) (UniProt Q60492); test: Inhibitory activity against sigma receptor isolated from guinea pig brain cortex membrane using [3H]DTG as radioligand
Sequence of Sigma non-opioid intracellular receptor 1 (Cavia porcellus) (Q60492 whole entry, looked up): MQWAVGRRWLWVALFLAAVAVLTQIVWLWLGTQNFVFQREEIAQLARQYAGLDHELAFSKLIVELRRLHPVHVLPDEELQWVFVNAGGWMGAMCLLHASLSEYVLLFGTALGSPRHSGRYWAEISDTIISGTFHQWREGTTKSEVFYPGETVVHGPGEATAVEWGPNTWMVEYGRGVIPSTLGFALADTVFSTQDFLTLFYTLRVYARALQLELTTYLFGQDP

[3] = Inhibition of [3H]DTG binding to sigma receptor from guinea pig brain cortex membrane
[4] = Inhibitory activity against sigma receptor isolated from guinea pig brain cortex membrane using PCP as radioligand at a concentration of 10e-5 M

Row | Structure (SMILES) | Ki [1] | Ki [2] | Ki [3] | Ki [4]
1 | COc1cccc2c1CCC=C2CCCN1CCN(Cc2ccccc2)CC1 [1-Benzyl-4-[3-(5-methoxy-3,4-dihydro-naphthalen-1-yl)-propyl]-piperazine] | > 1.43 µM | 0.139 µM | – | –
2 | COc1ccc2c(c1)C(CCCN1CCN(C3=NCCCC3)CC1)CCC2 (stereo unspecified) [1-[3-(7-Methoxy-1,2,3,4-tetrahydro-naphthalen-1-yl)-propyl]-4-(3,4,5,6-tetrahydro-pyridin-2-yl)-piperazine] | – | – | 0.029 µM | –
3 | COc1cccc2c1CCCC2CCCNCCNc1ccccc1 (stereo unspecified) [N-[3-(5-Methoxy-1,2,3,4-tetrahydro-naphthalen-1-yl)-propyl]-N'-phenyl-ethane-1,2-diamine] | – | – | 0.265 µM | 2.13 µM
4 | COc1cccc2c1CCCC2CCCN1CCNCC1 (stereo unspecified) [1-(3-(5-methoxy-1,2,3,4-tetrahydronaphthalen-1-yl)propyl)piperazine] | – | – | > 0.877 µM | –
